According to patent US9296818B2, “Cleavage inhibitors of transforming growth factor beta type I receptor and uses thereof in cancer therapy” (priority 2011, dated 2016):
“Also recorded” adds a separate entry of the source.

Columns and labels:
PC-3U cells = assay: CytoSelect cell invasion assay, PC-3U; type: cell-based, human
Experimental: (§1) Invasion assays were performed using the CytoSelect Cell Invasion Assay (Cell Biolabs, Inc., San Diego, Calif.). Briefly, the basement membrane layer of the cell culture inserts were rehydrated in 300 μl serum-free RPMI-1640 and 2×10^6 cells were seeded into the upper sections of the chambers in serum-free RPMI-1640 with or without TGFβ. The lower wells of the invasion plates were filled with 500 μl RPMI supplemented with 10% FBS. Non-invasive cells were removed from the upper chamber and invasive cells were stained with crystal violet cell stain solution. Invasive cells were photographed with a Leica DMR light microscope. Colorimetric quantification was performed by transferring inserts into 200 μl of extraction solution for 10 min and then, transferring to a 96-well microtiter plate. The OD at 560 nm was determined with a plate reader (Supplementary Information FIG. S5a).
The cancer cell invasion assay described in Example 1 above was performed to examine the ability of γ-secretase inhibitors in suppressing cancel cell invasion. Prostate cancers cells PC-3U, human lung carcinoma cells A549, and human breast carcinoma cells MDA-MB-231 were cultured following routine procedures, treated with TGFβ in the presence of absence of L-685,458, a γ-secretase inhibitor. Cells were visualized by staining with a crystal violet cell staining solution. […]

A549 cells = assay: CytoSelect cell invasion assay, A549; type: cell-based, human
Experimental: as §1
(§2) The cancer cell invasion assay described in Example 1 above was performed to examine the ability of γ-secretase inhibitors in suppressing cancel cell invasion. Prostate cancers cells PC-3U, human lung carcinoma cells A549, and human breast carcinoma cells MDA-MB-231 were cultured following routine procedures, treated with TGFβ in the presence of absence of L-685,458, a γ-secretase inhibitor. Cells were visualized by staining with a crystal violet cell staining solution.

MDA-MB-231 cells = assay: CytoSelect cell invasion assay, MDA-MB-231; type: cell-based, human
Experimental: as §1, §2

TβRI = assay: Formation of TβRI ICD (immunoblotting of cell lysates); type: cell-based, human; details: PC-3U cells
Experimental: (§3) Protein-G Sepharose was obtained from GE Healthcare.; LumiLight Western blotting substrate and Pefabloc were from Roche, PageRuler prestained protein ladder was from Fermentas; and TAPI-2 was from BIOMOL Research Laboratories Inc. TAPI-2 was used at concentrations of 10-20 μM. The p38α/β inhibitor (SB203580) was purchased from Calbiochem (it was used at a concentration of 10 μM). PKCζ pseudosubstrate was from TOCRIS Bioscience and used at concentrations of 10-50 μM. The PKCζ activator, phorbol 12-myristate 13-acetate (PMA, referred to as TPA in our paper), and a TβRI inhibitor (SB505124) were purchased from Sigma. The SB505124 inhibitor was used at a concentration of 10 μM and the TPA at a concentration of 100 nM. The general PKCζ inhibitor, GF109203X, was purchased from Sigma. All inhibitors were added to cells 1 h before TGFβ stimulation.
(§4) Cells were starved for 12-18 h and then stimulated with TGFβ for the indicated time periods, washed twice in ice-cold PBS, and lysed in ice-cold lysis buffer (150 mM NaCl, 50 mM Tris pH 8.0, 0.5% (v/v) deoxycholate, 1% (v/v) NP40, 10% (v/v) glycerol, 1 mM aprotinin, 1 mM Pefabloc and 2 mM sodium orthovanadate). After centrifugation, supernatants were collected and protein concentrations were determined using the bicinchoninic acid (BCA) protein measurement kit (Nordic Biolabs). Equal volumes were subjected to immunoprecipitation. […]

TβRI ICD = assay: Nuclear accumulation of TβRI ICD (immunofluorescence, nuclear fractionation); type: cell-based, human
Experimental: Before TGF-β1 stimulation, the cells were starved for 12-18 h in medium supplemented with 1% FBS. In all assays, the cells were stimulated with 10 ng/ml TGFβ1 (R&D System, UK).
as §3
as §4, with “immunoprecipitation. Equal amounts of protein from total cell lysates and immunoprecipitations were subjected to electrophoresis on 6%, 10%, 12%, or 4-12% gradient SDS-polyacrylamide gels (SDS-PAGE), blotted on to polyvinylidine difluoride membranes, and subjected to immunoblotting, as previously described.^23 The […] cell lysate from Santa Cruz was used as a positive control for TβRI.” for “immunoprecipitation.”

PKCζ = target: T1, PKCζ (Homo sapiens, UniProt Q05513); assay: Activation of PKCζ (immunoblotting for p-PKCζ); type: cell-based; details: PC-3U cells
T1 construct: Cell lysates from PC-3U cells treated with TGFβ or TPA were subjected to immunoblotting with an antiserum against pPKCζ; endogenous in cells; host or cells: PC-3U (human prostate cancer cell line)
T1 sequence (Q05513 1-592): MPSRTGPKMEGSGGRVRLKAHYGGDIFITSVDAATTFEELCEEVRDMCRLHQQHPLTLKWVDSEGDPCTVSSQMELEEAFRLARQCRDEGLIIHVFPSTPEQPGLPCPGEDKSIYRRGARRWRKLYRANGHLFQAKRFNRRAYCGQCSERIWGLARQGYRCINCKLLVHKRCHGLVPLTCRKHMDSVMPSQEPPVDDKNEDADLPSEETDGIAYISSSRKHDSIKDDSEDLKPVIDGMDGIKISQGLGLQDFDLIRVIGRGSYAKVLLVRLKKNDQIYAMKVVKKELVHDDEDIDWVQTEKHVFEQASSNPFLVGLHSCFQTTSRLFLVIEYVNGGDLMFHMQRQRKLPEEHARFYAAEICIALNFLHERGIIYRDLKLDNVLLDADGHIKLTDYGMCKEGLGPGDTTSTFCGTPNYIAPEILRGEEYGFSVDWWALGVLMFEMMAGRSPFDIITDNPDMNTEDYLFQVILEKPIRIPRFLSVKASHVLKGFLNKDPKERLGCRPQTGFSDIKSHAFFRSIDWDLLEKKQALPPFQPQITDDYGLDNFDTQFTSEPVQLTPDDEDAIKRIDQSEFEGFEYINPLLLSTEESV
Experimental: Cells were starved for 12-18 h and then stimulated with TGFβ for the indicated time periods, washed twice in ice-cold PBS, and lysed in ice-cold lysis buffer (150 mM NaCl, 50 mM Tris pH 8.0, 0.5% (v/v) deoxycholate, 1% (v/v) NP40, 10% (v/v) glycerol, 1 mM aprotinin, 1 mM Pefabloc and 2 mM sodium orthovanadate). After centrifugation, supernatants were collected and protein concentrations were determined using the bicinchoninic acid (BCA) protein measurement kit (Nordic Biolabs). Equal volumes were subjected to immunoprecipitation. Equal amounts of protein from total cell lysates and immunoprecipitations were subjected to electrophoresis on 6%, 10%, 12%, or 4-12% gradient SDS-polyacrylamide gels (SDS-PAGE), blotted on to polyvinylidine difluoride membranes, and subjected to immunoblotting, as previously described.^23 The […] cell lysate from Santa Cruz was used as a positive control for TβRI. The ubiquitination assays, immunofluorescence assays, and transient transfections were performed as previously described.^5,23,24 Photomicrographs were obtained with a Zeiss 510 Meta (Carl Zeiss Microimaging, Inc.) equipped with a digital camera (RET-EXi-F-M-12-C) from Q-imaging.

Q: How did the “TGFβ-induced cancer cell invasion” value (PC-3U cells) turn out when `CC(C)C[C@H](NC(=O)[C@H](Cc1ccccc1)C[C@@H](O)[C@H](Cc1ccccc1)NC(=O)OC(C)(C)C)C(=O)N[C@@H](Cc1ccccc1)C(N)=O` [L-685,458] was run?
A: significantly suppressed

Q: And the “TGFβ-induced cancer cell invasion” value (A549 cells)?
A: significantly suppressed

Q: What about the “TGFβ-induced cancer cell invasion” value (MDA-MB-231 cells) of the same compound?
A: significantly suppressed

Q: How did the “formation of the TβRI ICD” value (TβRI) turn out when `Cc1cccc(-c2[nH]c(C(C)(C)C)nc2-c2ccc3c(c2)OCO3)n1` [SB505124] was run?
A: no major effect

Q: How did the “nuclear translocation/accumulation of TβRI ICD in response to TGFβ stimulation” value (TβRI ICD; PC-3U cells, TGFβ, inhibitor added 1 h before TGFβ, V22 antibody) turn out when `CC(C)C[C@H](CC(=O)NO)C(=O)N[C@H](C(=O)N[C@@H](C)C(=O)NCCN)C(C)(C)C` [TAPI-2] was run?
A: reduction; also recorded: partly prevented

Q: How did the “ICD in the nuclear fraction” value (TβRI ICD; HA-caTβRI-expressing PC-3U cells treated with TPA) turn out when phorbol 12-myristate 13-acetate [TPA] was run?
A: accumulated in the nuclear fraction

Q: And the “nuclear accumulation of endogenous TβRI ICD, immunofluorescence” value (TβRI ICD; PC-3U cells treated with TPA alone, 6 h)?
A: led to nuclear accumulation

Q: And the “activation of PKCζ (p-PKCζ)” value (PKCζ)?
A: activated
